Measurements as given in US20210024499A1, “OXIDIZED BIS(3-INDOLYL)METHANES AND USES THEREOF” (Sanford Burnam Prebys Medical Discovery Institute, priority 2018, published 2021).
pIC50: −log10 of the molar value.

Assays:
Nur77−/− HeLa cells = experiment: Mitochondrial ROS, Nur77 knockout HeLa; assay type: cell-based
Procedure: (§1) Loss of mitochondrial membrane potential (Avm) represents one of the hallmarks of apoptosis. A JC-1 probe was employed to measure mitochondrial depolarization in cancer cells. MDA-MB-231 breast cancer cells were treated with different concentration of test compounds for 6 hours. JC-1 staining solution (5 μg/ml) was added at 37° C. for 20 min. After washing with PBS twice, mitochondrial membrane potentials were monitored by determining the relative amounts of dual emission from a multiple fluorescence reader. The fluorescence in cells was quantitatively analyzed by flow cytometry. Mitochondrial depolarization is depicted by an increase in the green/red fluorescence intensity ratio. ROS were monitored with the oxiadtion-senstive fluorescent probe 2′7′-dichlorodihydroflurescenin diacetate (DCF-DA).
Furthermore, Nur77^−/−HeLa cells were more resistant than the parental HeLa cells to Compound 1 in its induction of the mitochondrial membrane potential loss measured by JC1 staining and in the release of mitochondrial ROS (as performed in Example A-12).

Bcl-2−/−HeLa cells [1] = experiment: Mitochondrial membrane potential (JC1), Bcl-2-/- cells of the MEF study; assay type: cell-based; settings: Bcl-2−/−HeLa cells as printed, 0.5 μM, 6 h
Procedure: as §1
(§2) In addition, Bcl-2^−/−MEF cells were more resistant than the parental MEF cells to Compound 1 in its induction of the mitochondrial membrane potential loss measured by JC1 staining and in the release of mitochondrial ROS (as performed in Example A-12).

[2] = tested on: Nur77 interaction with Bcl-2; experiment: Confocal microscopy colocalization of Nur77 with Bcl-2; assay type: cell-based
Bcl-2−/−HeLa cells [3] = experiment: PARP cleavage and caspase 3 activation, Bcl-2 knockout HeLa; assay type: cell-based
Procedure: (§3) Knocking out Nur77 and Bcl-2 from HeLa cells employed the CRISPR/Cas9 system. gRNA targeting sequence of Nur77 (5′-[…]-3′) and Bcl-2 (5′-[…]-3′) was cloned into gRNA cloning vector Px330 (Addgene, 71707) and confirmed by sequencing. To screen for cells lacking Nur77 or Bcl-2, HeLa cells were transfected with control vector and gRNA expression vectors, followed by G418 selection (0.5mg/m1). Single colonies were subjected to Western blotting using anti-Nur77 and anti-Bcl-2 antibody to select knockout cells.
(§4) The apoptotic effect of Compound lwas also evaluated in Bcl-2 genome knockout HeLa cells generated by CRISPR/Cas9 technology (Example A-5).

Bcl-2−/−HeLa cells [4] = experiment: Annexin V/PI staining, Bcl-2 knockout HeLa; assay type: cell-based
Procedure: as §3, §4

Nur77−/−HeLa cells = experiment: PARP cleavage and caspase 3 activation, Nur77 knockout HeLa; assay type: cell-based
Procedure: as §3
The apoptotic effect of Compound lwas also evaluated in Nur77 genome knockout HeLa cells generated by CRISPR/Cas9 technology (Example A-5).

[5] = tested on: Nur77 and pBind-RXRa-LBD-E453,6A; experiment: Mammalian one hybrid assay, RXRa-LBD/E453,6A mutant with Nur77; assay type: cell-based; settings: cells transfected with Nur77 and pBind-RXRa-LBD-E453,6A
Procedure: HEK293T cells were co-transfected with pG5 Luciferase reporter together with the plasmid encoding RXRa-LBD fused with the Gal4 DNA-binding domain and other expression plasmids. After transfection, cells were treated with DMSO or a test compound, and assayed by using the Dual-Luciferase Reporter Assay System (Promega). Transfection efficiency was normalized to Renilla luciferase activity.
To exclude the possibility that Compound 1 acted on RXRa, Glu453 and Glu456 in the RXRa activation function 2 (AF2) region were substituted with Ala and the resulting mutant, RXRa-LBD/E453,6A, was used.

PyMT mammary tumor = experiment: MMTV-PyMT mice breast cancer model; assay type: in vivo; settings: for growth of PyMT mammary tumor: 18 days
Procedure: Female MMTV-PyMT mice of 12 weeks old were randomly divided into two groups (n=7 each), treated with a daily oral dose of test compound for 18 days. Standard histopathological analysis of tumor tissue was performed (see Example A-19). Test compounds were dissolved in DMSO and diluted with normal saline containing 5.0% (V/V) Tween-80 to a final concentration 0.5 mg/ml. Normal saline with DMSO and 5.0% Tween-80 was employed as the vehicle control.
4 μm thick sections were deparaffinized and rehydrated using xylene and a graded series of ethanol (100, 95, 85, 75, 50%), followed by washing in PBS. Antigen retrieval was performed in 10 mM sodium citrate buffer (pH 6.0), which was microwaved at 100° C. for 20 minutes. After rinsed twice in PBS, sections were blocked at room temperature for 1 hour by using 10% normal goat serum, followed by incubation with anti-ki-67, anti-cleaved-caspase-3, overnight (at least 17 hours) at 4° C. Colors were developed with a DAB horseradish peroxidase color development kit.

Nur77-LBD = biological target: T1, Nur77-LBD (Homo sapiens, UniProt P22736); experiment: Circular dichroism (CD) binding to Nur77-LBD; settings: purified Nur77-LBD, spectra changed at 50° C. and above (FIG. 9)
T1 construct: Protein spectra of purified Nur77-LBD at temperature 50° C. and above changed substantially; His (N); made in house
T1 sequence (P22736 360-595 limits assumed): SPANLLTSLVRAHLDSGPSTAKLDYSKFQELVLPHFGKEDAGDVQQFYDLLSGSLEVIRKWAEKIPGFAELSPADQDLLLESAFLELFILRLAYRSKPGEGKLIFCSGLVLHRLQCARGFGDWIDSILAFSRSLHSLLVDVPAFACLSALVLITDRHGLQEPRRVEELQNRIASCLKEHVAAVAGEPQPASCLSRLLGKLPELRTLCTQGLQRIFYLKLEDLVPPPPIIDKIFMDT
Procedure: Stock solutions of 100 mM test compound in ethanol were added to 0.5 ml of 1 μM purified His-proteins in PBS, pH 7.6. CD spectra were obtained in a 0.2 cm path length cell at temperature between 25° C. to 65° C. by using an AVIV 62 DS spectropolarimeter for a wavelength range at 220 nm. Three spectra were corrected for background and averaged for each sample. The Kd was determined using nonlinear regression analysis for a one-site binding model (χ2>0.98).

MEF cells = experiment: Mitochondrial membrane potential (JC1), MEF; assay type: cell-based, mouse; settings: 0.5 μM, 6 h
Procedure: as §1, §2

HCT116 cancer cells = experiment: Apoptosis assay, Annexin V-FITC/propidium iodide flow cytometry; assay type: cell-based; settings: Homo sapiens, HCT-116, 6 hours, Annexin V-FITC/PI flow cytometry (Table 4)
Procedure: HCT116 cancer cells plated at a density of 1×10^6 per well on six-well plates were treated with different concentration of test compounds for 6 hours, and then the suspension and the adherent cells were collected, stained with Annexin V-FITC for 15 minutes and with propodium iodide for 5 minutes, and analyzed immediately by cytoFLEX Flow Cytometry System (Beckman-Coulter, Miami, Fla., USA) using FITC and PC5.5 (Table 4).

[6] = tested on: mTOR markers p-S6 and p-4EBP1; experiment: mTOR inhibition: expression of mTOR markers; assay type: cell-based; settings: MDA-MB-231 cells, 6 hours

## FC(F)(F)c1ccc([C+](c2c[nH]c3ccccc23)c2c[nH]c3ccccc23)cc1 [Compound 1, Bis(1H-indol-3-yl)(4-(trifluoromethyl)phenyl)methylium methanesulfonate]
Nur77−/− HeLa cells
  increase in mito-ROS relative to regular HeLa cells: smaller increase
Bcl-2−/−HeLa cells [1]
  JC1 green to red ratio (control 100%): 150%
[2]
  colocalization of transfected GFP-Nur77 (and GFP-Nur77-LBD) with Bcl-2: promoted extensive colocalization
Bcl-2−/−HeLa cells [3]
  induction of PARP cleavage and caspase 3 activation: strongly suppressed
Bcl-2−/−HeLa cells [4]
  apoptotic effect (Annexin V/PI staining): 7.95%
Nur77−/−HeLa cells
  induction of PARP cleavage and caspase 3 activation: strongly suppressed
[5]
  reporter transcriptional activity: could still activate the reporter gene transcription
PyMT mammary tumor; 3 mg/kg
  expression levels of mTOR markers p-S6 and p-mTOR in tumor: markedly reduced
PyMT mammary tumor; 3 mg/kg daily oral
  growth of PyMT mammary tumor: inhibited the growth of PyMT mammary tumor
PyMT mammary tumor; 5 mg/kg daily oral
  growth of PyMT mammary tumor: inhibited the growth of PyMT mammary tumor
PyMT mammary tumor; 5 mg/kg, Western blotting
  expression levels of proliferation markers PCNA and Ki67 in tumor tissues: markedly reduced
PyMT mammary tumor; 5 mg/kg, immunostaining
  cleaved caspase 3 in tumor tissue specimens: enhanced expression of cleaved caspase 3
Nur77-LBD
  binding to Nur77-LBD (CD spectra): direct binding
MEF cells
  JC1 green to red ratio (control 100%): 400%
HCT116 cancer cells
  pIC50: > 6.30
[6]; 0.75 μM
  expression levels of mTOR marker p-4EBP1: reduced the expression levels
[6]; 1 μM
  expression levels of mTOR markers p-S6 and p-4EBP1: reduced the expression levels
